pEC50, pIC50: −log10 of the molar value.
How the values were obtained:
[1] = Cytotoxicity against HEK293 cells assessed as inhibition of cell growth at 80 uM incubated for 72 hrs by alamar blue dye based fluorescence assay relative to control; assay type: toxicity; settings: human
Plasmodium falciparum [2] = experiment: Antimalarial activity against chloroquine sensitive Plasmodium falciparum 3D7 assessed as parasite growth inhibition at 80 uM incubated for 72 hrs by DAPI staining method; assay type: functional
[3] = system: Human immunodeficiency virus 1; experiment: Reversal of HIV-1 latency infected in GFP-fused human J-Lat 10.6 cells assessed as inhibition of 50 nM PMA-induced HIV production by flow cytometry analysis; assay type: functional, organism-based; settings: Human immunodeficiency virus 1, J-Lat 10.6
[4] = system: Human immunodeficiency virus 1; experiment: Reversal of HIV-1 latency infected in GFP-fused human J-Lat 10.6 cells assessed as inhibition of 160 nM PMA-induced HIV production incubated for 24 hrs by flow cytometry analysis; assay type: functional, organism-based; settings: Human immunodeficiency virus 1, J-Lat 10.6, 24 h
Haemonchus contortus [5] = experiment: Anthelmintic activity against Haemonchus contortus assessed as induction of skinny phenotype at 50 uM measured at 168 hrs by microscope based analysis; assay type: functional
Haemonchus contortus [6] = experiment: Anthelmintic activity against fourth stage larvae of Haemonchus contortus assessed as induction of skinny phenotype measured after 7 days; assay type: functional, organism-based; settings: 168 h
Haemonchus contortus [7] = experiment: Anthelmintic activity against fourth stage larvae of Haemonchus contortus assessed as midbody width of L4 larvae measured after 7 days by microscopic analysis (reference value: 16.3+/-1.5 uM); assay type: functional; settings: time 7 day
Haemonchus contortus [8] = experiment: Anthelmintic activity against fourth stage larvae of Haemonchus contortus assessed as induction of skinny phenotype at 100 uM measured after 7 days relative to control; assay type: functional; settings: time 7 day
Haemonchus contortus [9] = experiment: Anthelmintic activity against third stage larvae of Haemonchus contortus assessed as reduction in larval motility at 50 uM measured at 168 hrs by microscope based analysis relative to control; assay type: functional; parameters: scale not given: the % may be the effect or the level left
Haemonchus contortus [10] = experiment: Anthelmintic activity against third stage larvae of Haemonchus contortus assessed as reduction in larval motility measured at 168 hrs by microscope based analysis; assay type: functional, organism-based
Haemonchus contortus [11] = experiment: Anthelmintic activity against Haemonchus contortus assessed as inhibition of L4 development at 50 uM measured at 168 hrs by microscope based analysis relative to control; assay type: functional
[12] = system: Human immunodeficiency virus 1; experiment: Reversal of HIV-1 latency infected in GFP-fused human J-Lat 10.6 cells assessed as inhibition of 160 nM PMA-induced HIV production at 100 ug/ml incubated for 24 hrs by flow cytometry analysis relative to control; assay type: functional; settings: Human immunodeficiency virus 1, J-Lat 10.6
Plasmodium falciparum [13] = experiment: Antimalarial activity against multidrug resistant Plasmodium falciparum Dd2 assessed as parasite growth inhibition at 80 uM incubated for 72 hrs by DAPI staining method; assay type: functional
[14] = Selectivity index, ratio of IC50 for cytotoxicity against HEK293 cells to IC50 for antimalarial activity against multidrug resistant Plasmodium falciparum Dd2; assay type: toxicity, cell-based; settings: human, read-out: Ratio IC50
Plasmodium falciparum [15] = experiment: Antimalarial activity against multidrug resistant Plasmodium falciparum Dd2 assessed as parasite growth inhibition incubated for 72 hrs by DAPI staining method; assay type: functional, organism-based; settings: Dd2, 72 h
Plasmodium falciparum [16] = experiment: Antimalarial activity against chloroquine sensitive Plasmodium falciparum 3D7 assessed as parasite growth inhibition incubated for 72 hrs by DAPI staining method; assay type: functional, organism-based; settings: 3D7, 72 h
[17] = Selectivity index, ratio of IC50 for cytotoxicity against HEK293 cells to IC50 for antimalarial activity against chloroquine sensitive Plasmodium falciparum 3D7; assay type: toxicity, cell-based; settings: human, read-out: Ratio IC50
[18] = Resistance index, ratio of IC50 for antimalarial activity against multidrug resistant Plasmodium falciparum Dd2 to IC50 for antimalarial activity against chloroquine sensitive Plasmodium falciparum 3D7; assay type: toxicity
[19] = Cytotoxicity against HEK293 cells assessed as inhibition of cell growth incubated for 72 hrs by alamar blue dye based fluorescence assay; assay type: toxicity; settings: human

SMILES | inhibition at 72 h, 80 µM [1] [%] | inhibition at 80 µM (Plasmodium falciparum [2]) [%] | pEC50 [3] | pEC50 [4] | Activity (Haemonchus contortus [5]) [%] | pIC50 (Haemonchus contortus [6]) | Activity (Haemonchus contortus [7]) [µM] | Activity (Haemonchus contortus [8]) [%] | Activity (Haemonchus contortus [9]) [%] | pIC50 (Haemonchus contortus [10]) | inhibition at 50 µM (Haemonchus contortus [11]) [%] | inhibition at 100 µg/mL [12] [%] | inhibition at 80 µM (Plasmodium falciparum [13]) [%] | selectivity ratio [14] | pIC50 (Plasmodium falciparum [15]) | pIC50 (Plasmodium falciparum [16]) | selectivity ratio [17] | Ratio IC50 [18] | IC50 at 72 h [19] [µM]
COC(=O)c1cc2c(c(OC)c1OC)[C@H](C)C[C@@H](O)[C@H]2[C@@H](C)CCC=C(C)C | 4 | > 41 | 4.42 | 3.84 | 59.1 | 4.87 | 8.8 | 78.4 | 28.3 | 5.31 | 5.3 | 66.5 | > 41 |  |  |  |  |  | 
COC(=O)c1cc2c(c(OC)c1OC)[C@H](C)C[C@@H](OC(=O)Nc1ccc(OC)cc1)[C@H]2[C@@H](C)CCC=C(C)C | 26 |  |  |  | 0 |  |  |  | 18.3 | < 4.30 | 2 | 22.9 |  | 7.9 | 5.00 | 5.03 | 8.6 | 1.1 | 
COC(=O)c1cc2c(c(OC)c1OC)[C@H](C)C[C@@H](OC(=O)Nc1ccccc1)[C@H]2[C@@H](C)CCC=C(C)C | 47 |  |  |  | 0 |  |  |  | 9.6 | < 4.30 | 4 | 29.3 | > 41 | 6.3 |  | 4.94 | 6.9 | 1.1 | 
COC(=O)c1cc2c(c(OC)c1OC)[C@H](C)C[C@@H](OC(=O)Nc1ccc(Cl)cc1)[C@H]2[C@@H](C)CCC=C(C)C | 3.1 |  |  |  | 0 |  |  |  | 26.4 | 5.74 | 2.5 | 31.7 |  | 6.1 | 4.88 | 4.93 | 6.9 |  | 
COC(=O)c1cc2c(c(OC)c1OC)[C@H](C)C[C@@H](OC(=O)Nc1ccc(C#N)cc1)[C@H]2[C@@H](C)CCC=C(C)C | 2 | < 41 |  | 4.01 | 1.7 |  |  |  | 6.8 | 5.05 | 12 | 59 | < 41 |  |  |  |  |  | 
COC(=O)c1cc2c(c(OC)c1OC)[C@H](C)C[C@@H](OC(=O)Nc1cc(C(F)(F)F)cc(C(F)(F)F)c1)[C@H]2[C@@H](C)CCC=C(C)C | 34 |  |  |  | 0 |  |  |  | 16.9 | 6.10 | 3.6 | 39.1 |  | 6.9 | 4.94 | 5.34 | 17.5 | 2.5 | 
CCc1nc(N)nc(N)c1-c1ccc(Cl)cc1 [PYRIMETHAMINE] |  |  |  |  |  |  |  |  |  |  |  |  |  |  |  |  | > 1010 | > 1010 | > 10
C[C@H]1[C@@H](O)O[C@@H]2O[C@@]3(C)CC[C@H]4[C@H](C)CC[C@@H]1[C@@]24OO3 [ARTENIMOL] |  |  |  |  |  |  |  |  |  |  |  |  |  | > 3080 |  |  | > 6680 | 2.2 | > 4
COC(=O)c1cc2c(c(OC)c1OC)[C@H](C)C[C@@H](OC(=O)NS(=O)(=O)c1ccc(C)cc1)[C@H]2[C@@H](C)CCC=C(C)C | 11 | > 41 |  |  | 67.5 |  |  |  | 15.6 | 5.21 | 21.7 | 20.7 | > 41 |  |  |  |  |  | 
CCN(CC)CCCC(C)Nc1ccnc2cc(Cl)ccc12 (stereo not given) [CHLOROQUINE] |  |  |  |  |  |  |  |  |  |  |  |  |  |  |  |  |  |  | > 10
COC(=O)c1cc2c(c(OC)c1OC)[C@H](C)C[C@@H](OC(=O)Nc1ccc([N+](=O)[O-])cc1)[C@H]2[C@@H](C)CCC=C(C)C | 52 |  |  |  | 60 |  |  |  | 30.4 | 5.19 | 4.8 | 43.5 |  | 7.5 | 4.97 | 5.12 | 5 | 1.3 | 
CC(C)=CCC[C@H](C)[C@H]1c2cc(C(=O)O)c(O)c(O)c2[C@H](C)C[C@H]1O | 8 | < 41 |  |  | 0 |  |  |  | 16.9 | 5.44 | 4 | < 10 | < 41 |  |  |  |  |  | 
COC(=O)c1cc2c(c(OC)c1OC)[C@H](C)C[C@@H](OC(=O)Nc1ccc(F)cc1)[C@H]2[C@@H](C)CCC=C(C)C | 25 |  |  |  | 0 |  |  |  | 36.2 | 4.50 | 3.2 | 28.7 |  | 7.4 | 4.97 | 5.06 | 9.2 | 1.2 | 
CO/N=C1\C[C@]2(C[C@@H]3C[C@@H](C/C=C(\C)C[C@@H](C)/C=C/C=C4\CO[C@@H]5[C@H](O)C(C)=C[C@@H](C(=O)O3)[C@]45O)O2)O[C@H](/C(C)=C/C(C)C)[C@H]1C [MOXIDECTIN] |  |  |  |  | 0 |  |  |  | 88.2 | 5.52 | 89.7 |  |  |  |  |  |  |  | 
COC(=O)c1cc2c(c(OC)c1OC)[C@H](C)C[C@@H](OC(=O)Nc1ccc(C)cc1)[C@H]2[C@@H](C)CCC=C(C)C | 12 |  |  |  | 0 |  |  |  | 12.9 | 5.15 | 2.3 | 36.8 |  | 6.2 | 4.89 | 4.91 | 6.6 | 1.1 | 
COC(=O)c1cc2c(c(OC)c1OC)[C@H](C)C[C@@H](OC(=O)NCc1ccccc1)[C@H]2[C@@H](C)CCC=C(C)C | 24 | > 41 |  |  | 0 |  |  |  | 44.7 | 6.40 | -4.4 | < 10 | > 41 |  |  |  |  |  | 
C[C@](C#N)(COc1cc(C#N)ccc1C(F)(F)F)NC(=O)c1ccc(SC(F)(F)F)cc1 [MONEPANTEL] |  |  |  |  | 0 |  |  |  | 99.2 | 6.70 | 98 |  |  |  |  |  |  |  | 
COc1ccc(C[C@H](N)C(=O)N[C@H]2[C@@H](O)[C@H](n3cnc4c(N(C)C)ncnc43)O[C@@H]2CO)cc1 [PUROMYCIN] |  |  |  |  |  |  |  |  |  |  |  |  |  | 8.2 | 7.09 | 7.37 | 15.5 | 1.9 | 0.664
COC(=O)c1cc2c(c(OC)c1OC)[C@H](C)C[C@@H](OC(=O)Nc1cccc(Cl)c1)[C@H]2[C@@H](C)CCC=C(C)C | 42 |  |  |  | 0 |  |  |  | 39.1 | 5.80 | 7.1 | 37.2 |  | 8.7 | 5.04 | 5.04 | 8.8 | 1 | 
